This is an account of results in US20130115174A1, “TRANSMUCOSAL COMPOSITION CONTAINING ANTHOCYANINS FOR ALLEVIATING A VISUAL DISCOMFORT” (priority 2010, published 2013).

Read-outs that look alike come from different tables or passages of the source.

A short description of data set [1]: Digestive versus sublingual absorption, plasmatic level 1 hour after administration. The data set is classed as in vivo, Rats. As to conditions: for concentration at 1 h: rat, plasma, read-out: Plasmatic lutein concentration. On the procedure: Taurin and Lutein plasmatic level are evaluated using HPLC process as described Lallemand F. et al, 2004 and Shanmugam S, et al, 2011, respectively.

Details of data set [2]: species or system Rats (OFA, Sprague-Dawlay). As to conditions: rat, in vivo.
Procedure: The stick gum administered to Rats contains 5 mg of vegetal extract titrated at 25% of anthocyanosides (i.e. 1.250 μg of anthocyanosides).
The Sprague Dawley rat (10 Males) used extensively in medical research weighing 450-520 g were received and placed separately in cage in room temperature controlled (22° C.). […] Rats were maintained in dark periode condition and fed a diet (755 g/kg wheat starch, 150 g/kg casein, 50 g/kg peanut oil, 35 g/kg AlN-93M mineral mixture, 10 g/kg AlN-76A vitamin mixture) during 2 weeks (Felgines, C. et al. J. Nutr 2002).
The stick gum was deposited at the buccal mucosa area.
Peripheral blood was collected 1 hour post-administration, centrifuged and plasma was acidified through formic acid addition. After acidification, plasma samples were conserved at −80° C. and analyzed by LC-MS/MS (Liquid Chromatography—Mass Spectrometer/Mass Spectrometer).
In parallel, epithelium and conjunctive tissues were collected 45 minutes post-administration, placed in formic acid and eventually conserved at −80° C. Before LC-MS/MS analyze, tissues were washed in PBS (phosphate buffered saline) and homogenized on ice. Protein concentrations were determined by Lowry method. To facilitate tissues preparation, samples were homogenized and treated with 2.5% trypsin and 2% collagenase during 1.5 h at 37° C., and then acidified with formic acid. […]

On to `CC1=C[C@H](O)CC(C)(C)[C@H]1/C=C/C(C)=C/C=C/C(C)=C/C=C/C=C(C)/C=C/C=C(C)/C=C/C1=C(C)C[C@@H](O)CC1(C)C` [lutein, Lutein], for which the “absorption, lingual way as compared to the digestive way” value in data set [1] (Example 5, rats) is reported as “more effective”. The concentration at 1 h in data set [1] (oral, Digestive, 6 mg/kg) is 0.034 µg/mL; in data set [1] (oral, Digestive, 12 mg/kg), 0.032 µg/mL; in data set [1] (other: sublingual, Sublingual, 6 mg/kg) it was 0.12 µg/mL; in data set [1] (other: sublingual, Sublingual, 12 mg/kg), 0.16 µg/mL.

Anthocyanin: in data set [2], the “absorption in the tissues and in the plasma” value is “significantly absorbed”.
